Results on five molecules are retold here after patent EP4722207A1, “OXOISOINDOLINYL-SUBSTITUTED TETRAHYDROPYRIMIDINEDIONE DERIVATIVE AND USE THEREOF” (Gluetacs Therapeutics (Shanghai) Co., Ltd., priority 2023, dated 2024).

One assay concerns MDA-MB-231. The assay can be described thus: Cell viability assay (CellTiter-Meiluncell Luminescent), tumor cell proliferation, MDA-MB-231. The following applies: Homo sapiens, MDA-MB-231, 96 h; for inhibition at 0.01 µM: read-out: Inhibition Rate at 10 nM (%); for inhibition at 0.5 µM: read-out: Inhibition Rate at 500 nM (%).
A further assay deals with T1, IKZF3 (Homo sapiens, UniProt Q96SW2+Q9UKT9).
T1 construct: effects of the compounds of the present disclosure on the expression of target proteins in cells; endogenous in cells; host or cells: human PBMCs (hPBMCs)
The assay can be described thus: Western-blot assay, substrate protein degradation in hPBMCs: IKZF3. The format is cell-based. The settings on record: 24 hours of compound treatment, 50 nM and 500 nM.

The target of another assay is T2, GSPT1 (Homo sapiens, UniProt P15170+Q96SW2).
T2 construct: effects of the compounds of the present disclosure on the expression of target proteins in cells; endogenous in cells; host or cells: human PBMCs (hPBMCs)
The assay can be described thus: Western-blot assay, substrate protein degradation in hPBMCs: GSPT1. Format: cell-based. The following applies: 24 hours of compound treatment, 50 nM and 500 nM.

The next assay deals with T3, IKZF2 (Homo sapiens, UniProt Q96SW2+Q9UKS7).
T3 construct: effects of the compounds of the present disclosure on the expression of target proteins in cells; endogenous in cells; host or cells: human PBMCs (hPBMCs)
The assay can be described thus: Western-blot assay, substrate protein degradation in hPBMCs: IKZF2. Format: cell-based. The following applies: 24 hours of compound treatment, 50 nM and 500 nM.

The subject of the next assay is MV-4-11. The assay can be described thus: Cell viability assay (CellTiter-Meiluncell Luminescent), tumor cell proliferation, MV-4-11. The settings on record: Homo sapiens, MV4-11, 96 h; for inhibition at 0.01 µM: read-out: Inhibition Rate at 10 nM (%); for inhibition at 0.5 µM: read-out: Inhibition Rate at 500 nM (%).
A further assay deals with T4, CK1α (Homo sapiens, UniProt P48729+Q96SW2).
T4 construct: effects of the compounds of the present disclosure on the expression of target proteins in cells; endogenous in cells; host or cells: human PBMCs (hPBMCs)
Briefly: Western-blot assay, substrate protein degradation in hPBMCs: CK1α. The following applies: 24 hours of compound treatment, 50 nM and 500 nM. The format is cell-based.

The target of the next assay is T5, IKZF1 (Homo sapiens, UniProt Q13422+Q96SW2).
T5 construct: effects of the compounds of the present disclosure on the expression of target proteins in cells; endogenous in cells; host or cells: human PBMCs (hPBMCs)
The assay can be described thus: Western-blot assay, substrate protein degradation in hPBMCs: IKZF1. Format: cell-based. The settings on record: 24 hours of compound treatment, 50 nM and 500 nM.

For a further assay, the target named is T6, WEE1 (Homo sapiens, UniProt P30291+Q96SW2).
T6 construct: effects of the compounds of the present disclosure on the expression of target proteins in cells; endogenous in cells; host or cells: human PBMCs (hPBMCs)
Briefly: Western-blot assay, substrate protein degradation in hPBMCs: WEE1. The format is cell-based. The following applies: 24 hours of compound treatment, 50 nM and 500 nM.

The next assay deals with H292. The assay can be described thus: Cell viability assay (CellTiter-Meiluncell Luminescent), tumor cell proliferation, H292. The settings on record: Homo sapiens, NCI-H292, 96 h; for inhibition at 0.01 µM: read-out: Inhibition Rate at 10 nM (%); for inhibition at 0.5 µM: read-out: Inhibition Rate at 500 nM (%).

T1 sequence (Q9UKT9 whole entry): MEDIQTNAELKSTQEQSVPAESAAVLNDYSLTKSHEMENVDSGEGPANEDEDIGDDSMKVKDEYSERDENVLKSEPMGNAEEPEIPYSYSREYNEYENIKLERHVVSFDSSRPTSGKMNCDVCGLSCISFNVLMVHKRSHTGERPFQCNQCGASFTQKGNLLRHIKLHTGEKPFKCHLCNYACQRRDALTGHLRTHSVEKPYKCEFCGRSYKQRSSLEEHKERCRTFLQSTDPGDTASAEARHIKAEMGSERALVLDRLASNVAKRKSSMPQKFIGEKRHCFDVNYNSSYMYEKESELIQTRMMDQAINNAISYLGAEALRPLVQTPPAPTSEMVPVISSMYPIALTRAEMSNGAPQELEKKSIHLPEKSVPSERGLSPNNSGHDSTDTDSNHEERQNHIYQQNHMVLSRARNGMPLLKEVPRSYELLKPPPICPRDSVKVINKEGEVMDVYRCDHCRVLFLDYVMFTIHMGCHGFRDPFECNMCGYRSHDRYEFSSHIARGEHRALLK
T1 sequence (Q96SW2 whole entry): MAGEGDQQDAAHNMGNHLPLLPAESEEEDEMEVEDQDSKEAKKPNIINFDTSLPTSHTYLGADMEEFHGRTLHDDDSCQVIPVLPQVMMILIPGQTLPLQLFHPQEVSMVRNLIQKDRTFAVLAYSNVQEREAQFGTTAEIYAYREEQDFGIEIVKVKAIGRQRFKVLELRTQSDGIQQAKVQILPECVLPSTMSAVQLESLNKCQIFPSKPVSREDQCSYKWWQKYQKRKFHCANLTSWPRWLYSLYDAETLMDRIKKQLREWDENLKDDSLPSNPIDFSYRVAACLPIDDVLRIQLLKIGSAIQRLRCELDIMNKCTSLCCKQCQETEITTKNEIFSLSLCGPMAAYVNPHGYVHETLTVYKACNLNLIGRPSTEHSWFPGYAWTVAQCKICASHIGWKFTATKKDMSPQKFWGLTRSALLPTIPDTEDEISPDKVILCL
T1 sequence (Q16531 whole entry partner): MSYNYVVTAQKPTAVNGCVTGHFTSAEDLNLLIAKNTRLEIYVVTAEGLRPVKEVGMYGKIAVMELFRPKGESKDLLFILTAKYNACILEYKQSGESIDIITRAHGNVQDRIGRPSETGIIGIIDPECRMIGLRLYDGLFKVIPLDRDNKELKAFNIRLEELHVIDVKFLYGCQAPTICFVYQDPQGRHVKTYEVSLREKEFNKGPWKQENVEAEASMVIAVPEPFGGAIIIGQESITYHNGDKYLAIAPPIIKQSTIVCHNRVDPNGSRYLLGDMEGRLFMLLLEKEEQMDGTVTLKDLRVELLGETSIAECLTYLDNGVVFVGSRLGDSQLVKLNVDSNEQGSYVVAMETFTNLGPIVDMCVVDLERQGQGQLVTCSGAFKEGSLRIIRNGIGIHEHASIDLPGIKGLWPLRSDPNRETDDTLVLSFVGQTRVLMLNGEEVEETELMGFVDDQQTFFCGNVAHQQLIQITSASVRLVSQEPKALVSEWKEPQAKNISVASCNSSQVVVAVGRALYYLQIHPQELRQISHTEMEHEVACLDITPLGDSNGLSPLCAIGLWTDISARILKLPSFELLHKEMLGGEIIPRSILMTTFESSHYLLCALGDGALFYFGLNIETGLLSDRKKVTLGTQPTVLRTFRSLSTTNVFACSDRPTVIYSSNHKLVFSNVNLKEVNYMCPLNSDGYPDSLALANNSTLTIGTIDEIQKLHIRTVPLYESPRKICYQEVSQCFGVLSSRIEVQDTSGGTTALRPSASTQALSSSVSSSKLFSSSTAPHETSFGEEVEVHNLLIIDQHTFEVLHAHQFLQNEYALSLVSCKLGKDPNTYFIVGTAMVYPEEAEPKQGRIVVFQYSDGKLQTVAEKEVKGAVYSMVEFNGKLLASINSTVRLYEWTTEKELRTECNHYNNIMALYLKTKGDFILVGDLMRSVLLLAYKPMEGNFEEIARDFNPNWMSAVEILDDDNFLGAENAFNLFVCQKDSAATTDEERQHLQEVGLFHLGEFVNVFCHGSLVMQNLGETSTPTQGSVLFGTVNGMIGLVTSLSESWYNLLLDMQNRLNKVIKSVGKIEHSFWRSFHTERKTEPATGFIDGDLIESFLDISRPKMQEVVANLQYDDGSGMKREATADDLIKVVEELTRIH
T6 sequence (P30291 whole entry): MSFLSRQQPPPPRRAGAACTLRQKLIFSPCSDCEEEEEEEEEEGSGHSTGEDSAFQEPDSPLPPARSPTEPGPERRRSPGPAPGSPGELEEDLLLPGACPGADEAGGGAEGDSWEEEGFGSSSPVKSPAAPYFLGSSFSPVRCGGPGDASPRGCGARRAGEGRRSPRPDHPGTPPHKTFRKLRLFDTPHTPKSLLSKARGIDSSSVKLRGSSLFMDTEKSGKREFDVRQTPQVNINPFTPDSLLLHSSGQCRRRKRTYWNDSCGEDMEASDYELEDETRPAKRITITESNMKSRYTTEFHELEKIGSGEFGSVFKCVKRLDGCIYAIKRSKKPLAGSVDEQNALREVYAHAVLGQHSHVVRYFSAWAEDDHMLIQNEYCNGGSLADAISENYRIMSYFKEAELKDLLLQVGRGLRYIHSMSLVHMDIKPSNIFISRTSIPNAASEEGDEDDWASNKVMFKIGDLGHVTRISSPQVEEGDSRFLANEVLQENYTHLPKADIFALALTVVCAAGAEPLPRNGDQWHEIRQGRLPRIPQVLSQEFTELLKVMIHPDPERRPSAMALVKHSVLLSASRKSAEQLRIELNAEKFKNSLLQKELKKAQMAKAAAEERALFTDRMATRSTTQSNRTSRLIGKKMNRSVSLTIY
T6 sequence (Q96SW2 whole entry): as the sequence (Q96SW2 whole entry) above
T6 sequence (Q16531 whole entry partner): as the sequence (Q16531 whole entry partner) above
T2 sequence (P15170 whole entry): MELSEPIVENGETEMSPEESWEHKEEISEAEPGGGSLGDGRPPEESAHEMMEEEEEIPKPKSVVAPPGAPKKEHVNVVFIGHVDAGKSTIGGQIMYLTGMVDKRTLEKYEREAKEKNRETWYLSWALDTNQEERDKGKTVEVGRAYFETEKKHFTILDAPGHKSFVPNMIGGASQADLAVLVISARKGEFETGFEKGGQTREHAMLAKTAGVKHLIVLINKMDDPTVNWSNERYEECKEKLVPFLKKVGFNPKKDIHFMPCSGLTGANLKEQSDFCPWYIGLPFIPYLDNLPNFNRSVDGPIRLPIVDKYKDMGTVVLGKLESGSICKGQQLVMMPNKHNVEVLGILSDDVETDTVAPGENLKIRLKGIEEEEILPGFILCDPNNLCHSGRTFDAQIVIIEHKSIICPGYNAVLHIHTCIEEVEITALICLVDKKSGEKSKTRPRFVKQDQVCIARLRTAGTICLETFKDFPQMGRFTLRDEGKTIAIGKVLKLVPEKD
T2 sequence (Q96SW2 whole entry): as the sequence (Q96SW2 whole entry) above
T2 sequence (Q16531 whole entry partner): as the sequence (Q16531 whole entry partner) above
T3 sequence (Q9UKS7 whole entry): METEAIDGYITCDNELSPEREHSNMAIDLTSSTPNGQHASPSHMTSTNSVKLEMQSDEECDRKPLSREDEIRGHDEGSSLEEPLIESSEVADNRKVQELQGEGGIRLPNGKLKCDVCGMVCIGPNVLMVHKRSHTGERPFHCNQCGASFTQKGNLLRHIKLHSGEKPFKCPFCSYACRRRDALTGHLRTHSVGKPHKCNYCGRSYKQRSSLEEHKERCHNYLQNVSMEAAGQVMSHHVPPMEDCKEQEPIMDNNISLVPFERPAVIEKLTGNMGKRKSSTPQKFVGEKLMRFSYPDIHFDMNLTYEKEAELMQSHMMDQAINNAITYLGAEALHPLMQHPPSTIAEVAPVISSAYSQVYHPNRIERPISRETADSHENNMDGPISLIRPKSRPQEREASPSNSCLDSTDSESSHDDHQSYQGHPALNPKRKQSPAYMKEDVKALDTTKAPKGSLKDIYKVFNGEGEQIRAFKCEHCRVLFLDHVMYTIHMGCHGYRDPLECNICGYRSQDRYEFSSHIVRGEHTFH
T3 sequence (Q96SW2 whole entry): as the sequence (Q96SW2 whole entry) above
T3 sequence (Q16531 whole entry partner): as the sequence (Q16531 whole entry partner) above
T5 sequence (Q13422 whole entry): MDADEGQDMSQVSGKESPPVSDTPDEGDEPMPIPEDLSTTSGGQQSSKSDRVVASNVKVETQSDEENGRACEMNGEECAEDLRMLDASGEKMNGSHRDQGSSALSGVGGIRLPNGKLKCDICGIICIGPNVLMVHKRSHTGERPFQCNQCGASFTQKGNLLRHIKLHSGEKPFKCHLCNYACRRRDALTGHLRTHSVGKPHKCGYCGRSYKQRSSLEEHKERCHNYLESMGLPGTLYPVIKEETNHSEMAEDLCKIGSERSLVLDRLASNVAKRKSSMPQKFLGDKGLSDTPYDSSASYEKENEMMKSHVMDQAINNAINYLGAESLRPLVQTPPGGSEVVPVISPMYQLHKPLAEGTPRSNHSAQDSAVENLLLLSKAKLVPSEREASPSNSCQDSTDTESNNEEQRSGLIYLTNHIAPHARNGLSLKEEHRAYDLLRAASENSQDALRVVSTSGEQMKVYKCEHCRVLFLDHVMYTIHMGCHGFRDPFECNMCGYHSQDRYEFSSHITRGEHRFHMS
T5 sequence (Q96SW2 whole entry): as the sequence (Q96SW2 whole entry) above
T5 sequence (Q16531 whole entry partner): as the sequence (Q16531 whole entry partner) above
Experimental for MDA-MB-231: (§1) The tumor cells used herein were cultured in a cell culture medium listed in table 2 at 37°C in an incubator with 5% CO2. Prior to experimentation, all cell lines used were correctly identified by STR profiling, and tested negative for mycoplasma contamination using a mycoplasma detection kit through routine screenings.
(§2) On the following day, the test compounds of the present disclosure were subjected to serial dilution. […] Subsequently, 0.5 µL of the test compound dilution was transferred into the 96-well plate containing the cells, with each well containing 100 µL of cell culture medium. […] Into the 96-well plate, the diluted test compounds and corresponding detection reagents were added, resulting in final test compound concentrations of 500 nM and 10 nM, respectively. The experimental procedure is described below using the diluted 2 µM test compound as an example.
(§3) After the cells were treated with the compounds of the present disclosure for a specified period, the cell viability assay reagent was added to the culture medium according to the kit's instructions to determine cell viability. […] All controls were treated using the same procedure as the compounds of the present disclosure. The growth inhibition curves for the compounds of the present disclosure were plotted using Prism GraphPad software, and the IC50 values were calculated therefrom.
Experimental for MV-4-11: as §1, §2, §3

Take `O=C1CCN(N2Cc3cc(CN4CCN(c5ncc6ccsc6n5)CC4)ccc3C2=O)C(=O)N1` [GT-08081, 1-(1-oxo-5-((4-(thieno[2,3-d]pyrimidin-2-yl)piperazin-1-yl)methyl)isoindolin-2-yl)dihydropyrimidine-2,4(1H,3H)-dione]: the inhibition at 0.01 µM with MDA-MB-231 and in the assay with MV-4-11 was 18 to 25% in each case. Further, the values for the inhibition at 0.5 µM with MDA-MB-231 and in the assay on MV-4-11 were 5 to 10% and 25 to 30%, respectively. Also, the “substrate protein remaining % IKZF3” value on IKZF3 is reported as “B (80%< substrate protein remaining %≤ 100%)”. The “substrate protein remaining % GSPT1” value on GSPT1 is reported as “A (0% ≤ substrate protein remaining % ≤ 80%)”. For the same molecule, the “substrate protein remaining % IKZF2” value on IKZF2 is listed as “B (80%< substrate protein remaining %≤ 100%)”. Further, the “substrate protein remaining % CK1α” value at CK1α is listed as “A (0% ≤ substrate protein remaining % ≤ 80%)”. Moreover, at IKZF1, the “substrate protein remaining % IKZF1” value is recorded as “B (80%< substrate protein remaining %≤ 100%)”. On WEE1, the “substrate protein remaining % WEE1” value is “A (0% ≤ substrate protein remaining % ≤ 80%)”.
As to `Cc1nc(C2CCN(Cc3ccc4c(c3)C(=O)N(N3CCC(=O)NC3=O)C4=O)CC2)c2c(-c3ccccc3)csc2n1` [GT-08110, 2-(2,4-dioxotetrahydropyrimidin-1(2H)-yl)-5-((4-(2-methyl-5-phenylthieno[2,3-d]pyrimidin-4-yl)piperidin-1-yl)methyl)isoindoline-1,3-dione], the inhibition at 0.01 µM with H292 was in the range of 20 to 40%; with MDA-MB-231, 25 to 40%; in the assay on MV-4-11 it was 10 to 18%. The values for the inhibition at 0.5 µM with H292, in the assay on MDA-MB-231 and in the assay with MV-4-11 were 10 to 15%, 15 to 18% and 18 to 25%, respectively. Also, the “substrate protein remaining % IKZF3” value on IKZF3 was “A (0% ≤ substrate protein remaining % ≤ 80%)”. Further, the “substrate protein remaining % GSPT1” value on GSPT1 was “A (0% ≤ substrate protein remaining % ≤ 80%)”. Besides, at IKZF2, the “substrate protein remaining % IKZF2” value is listed as “A (0% ≤ substrate protein remaining % ≤ 80%)”. Further, at CK1α, the “substrate protein remaining % CK1α” value is reported as “A (0% ≤ substrate protein remaining % ≤ 80%)”. Besides, at IKZF1, the “substrate protein remaining % IKZF1” value is reported as “A (0% ≤ substrate protein remaining % ≤ 80%)”. For the same molecule, the “substrate protein remaining % WEE1” value on WEE1 is “A (0% ≤ substrate protein remaining % ≤ 80%)”.
As to `Cc1nc(C2CCN(Cc3ccc4c(c3)CN(N3CCC(=O)NC3=O)C4=O)CC2)c2c3c(sc2n1)CCC3` [GT-08114, 1-(5-((4-(2-methyl-6,7-dihydro-5H-cyclopenta[4,5]thieno[2,3-d]pyrimidin-4-yl)piperidin-1-yl)methyl)-1-oxoisoindolin-2-yl)dihydropyrimidine-2,4(1H,3H)-dione], in the assay on H292, the inhibition at 0.01 µM was 20 to 40% and the inhibition at 0.5 µM fell in the range of 10 to 15%. For the same molecule, in the assay with MDA-MB-231, the inhibition at 0.01 µM fell in the range of 18 to 25% and the inhibition at 0.5 µM is 18 to 25%. Moreover, the “substrate protein remaining % IKZF3” value on IKZF3 is “B (80%< substrate protein remaining %≤ 100%)”. At GSPT1, the “substrate protein remaining % GSPT1” value is “A (0% ≤ substrate protein remaining % ≤ 80%)”. In addition, the “substrate protein remaining % IKZF2” value on IKZF2 was “B (80%< substrate protein remaining %≤ 100%)”. For the same molecule, at CK1α, the “substrate protein remaining % CK1α” value was “B (80%< substrate protein remaining %≤ 100%)”. The “substrate protein remaining % IKZF1” value on IKZF1 is “B (80%< substrate protein remaining %≤ 100%)”. Also, the “substrate protein remaining % WEE1” value on WEE1 is “B (80%< substrate protein remaining %≤ 100%)”.
With `Cc1csc2ncnc(C3=CCN(Cc4ccc5c(c4)CN(N4CCC(=O)NC4=O)C5=O)CC3)c12` [GT-08117, 1-(5-((4-(5-methylthieno[2,3-d]pyrimidin-4-yl)-3,6-dihydropyridin-1(2H)-yl)methyl)-1-oxoisoindolin-2-yl)dihydropyrimidine-2,4(1H,3H)-dione], the inhibition at 0.01 µM in the assay on H292 lay within 20 to 40%; with MDA-MB-231, 18 to 25%. Also, the inhibition at 0.5 µM with H292 was in the range of 20 to 40%; in the assay with MDA-MB-231, 18 to 25%. Also, the “substrate protein remaining % IKZF3” value at IKZF3 is “A (0% ≤ substrate protein remaining % ≤ 80%)”. For the same molecule, on GSPT1, the “substrate protein remaining % GSPT1” value is “A (0% ≤ substrate protein remaining % ≤ 80%)”. Besides, the “substrate protein remaining % IKZF2” value at IKZF2 is reported as “B (80%< substrate protein remaining %≤ 100%)”. Besides, the “substrate protein remaining % CK1α” value on CK1α is listed as “A (0% ≤ substrate protein remaining % ≤ 80%)”. Further, the “substrate protein remaining % IKZF1” value at IKZF1 was “B (80%< substrate protein remaining %≤ 100%)”. On WEE1, the “substrate protein remaining % WEE1” value was “B (80%< substrate protein remaining %≤ 100%)”.
With `NCc1ccc2c(c1)CN(N1CCC(=O)NC1=O)C2=O` [GT-08118, 1-(5-(aminomethyl)-1-oxoisoindolin-2-yl)dihydropyrimidine-2,4(1H,3H)-dione], the results for the inhibition at 0.01 µM with H292, with MDA-MB-231 and with MV-4-11 were 20 to 40%, 18 to 25% and 40 to 60%, respectively. The inhibition at 0.5 µM fell in the range of 20 to 40% with H292, 25 to 40% in the assay with MDA-MB-231 and 40 to 60% with MV-4-11.
